Source: ChEMBL document CHEMBL1201862, “PubChem BioAssay data set” (2004)
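Following 48 hours of exposure in 96-well plates, responses at five concentrations were used to interpolate endpoints linearly. The concentration for 50% growth inhibition is given as GI50.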 Active and inactive are the calls of the source. Rule as the data show it: active = GI50 up to about 1.1 µM and inactive = higher.

Legend:
Assay in all cases: DTP human tumour cell line panel, 48 h
[1] = test system: NCI/ADR-RES
[2] = test system: EKVX
[3] = test system: SW-620
[4] = test system: HT-29
[5] = test system: M14
[6] = test system: RPMI-8226
[7] = test system: SK-MEL-2
[8] = test system: COLO 205
[9] = test system: SN12C
[10] = test system: Hs-578T
[11] = test system: UACC-257
[12] = test system: MDA-MB-435
[13] = test system: K562
[14] = test system: HOP-92
[15] = test system: UO-31
[16] = test system: 786-0
[17] = test system: SK-OV-3
[18] = test system: MCF7
[19] = test system: SNB-75
[20] = test system: CAKI-1
[21] = test system: NCI-H226
[22] = test system: LOX IMVI
[23] = test system: OVCAR-5
[24] = test system: OVCAR-8
[25] = test system: SK-MEL-28
[26] = test system: OVCAR-3
[27] = test system: HCC 2998
[28] = test system: NCI-H23
[29] = test system: SF-268
[30] = test system: MOLT-4
[31] = test system: MDA-N
[32] = test system: PC-3
[33] = test system: CCRF-CEM
[34] = test system: HCT-15
[35] = test system: HL-60
[36] = test system: IGROV-1
[37] = test system: RXF 393
[38] = test system: DU-145
[39] = test system: UACC-62
[40] = test system: SF-295
[41] = test system: OVCAR-4
[42] = test system: Malme-3M
[43] = test system: T47D
[44] = test system: SK-MEL-5
[45] = test system: A549
[46] = test system: SF-539
[47] = test system: MDA-MB-231
[48] = test system: ACHN
[49] = test system: SR
[50] = test system: U-251
[51] = test system: KM12
[52] = test system: TK-10
[53] = test system: NCI-H460
[54] = test system: SNB-19
[55] = test system: HOP-62
[56] = test system: HCT-116

For `c1ccc(C[n+]2ccc3c(c2)CCCC3)cc1`, the GI50 [1] was > 100 µM (inactive), the GI50 [2] was 10.6 µM (inactive) and the GI50 [3] was > 100 µM (inactive). For the same compound, the GI50 [4] was 50.9 µM (inactive), the GI50 [5] was 95.7 µM (inactive) and the GI50 [6] was 65.9 µM (inactive). For the same compound, the GI50 [7] was 84.3 µM (inactive), the GI50 [8] was 66.5 µM (inactive) and the GI50 [9] was > 100 µM (inactive). For the same compound, the GI50 [10] was 49.9 µM (inactive), the GI50 [11] was 33.8 µM (inactive) and the GI50 [12] was > 100 µM (inactive). The GI50 [13] was 11.7 µM (inactive), the GI50 [14] was > 100 µM (inactive) and the GI50 [15] was > 100 µM (inactive). For the same compound, the GI50 [16] was > 100 µM (inactive), the GI50 [17] was > 100 µM (inactive) and the GI50 [18] was 52.1 µM (inactive). The GI50 [19] was 54.1 µM (inactive), the GI50 [20] was > 100 µM (inactive) and the GI50 [21] was > 100 µM (inactive). The GI50 [22] was 92.7 µM (inactive), the GI50 [23] was > 100 µM (inactive) and the GI50 [24] was > 100 µM (inactive). For the same compound, the GI50 [25] was > 100 µM (inactive), the GI50 [26] was 36.8 µM (inactive) and the GI50 [27] was 22.9 µM (inactive). For the same compound, the GI50 [28] was 39.4 µM (inactive), the GI50 [29] was > 100 µM (inactive) and the GI50 [30] was > 100 µM (inactive). The GI50 [31] was > 100 µM (inactive), the GI50 [32] was 78 µM (inactive) and the GI50 [33] was > 100 µM (inactive). For the same compound, the GI50 [34] was over 100 µM, the GI50 [35] was 29.5 µM (inactive) and the GI50 [36] was > 100 µM (inactive). For the same compound, the GI50 [37] was > 100 µM (inactive), the GI50 [38] was > 100 µM (inactive) and the GI50 [39] was > 100 µM (inactive). The GI50 [40] was 77.3 µM (inactive), the GI50 [41] was 56 µM (inactive) and the GI50 [42] was 21.4 µM (inactive). The GI50 [43] was 45.3 µM (inactive), the GI50 [44] was 19.6 µM (inactive) and the GI50 [45] was 77.3 µM (inactive). For the same compound, the GI50 [46] was > 100 µM (inactive), the GI50 [47] was > 100 µM (inactive) and the GI50 [48] was 64.6 µM (inactive). For the same compound, the GI50 [49] was > 100 µM (inactive), the GI50 [50] was 55.1 µM (inactive) and the GI50 [51] was 62.2 µM (inactive). For the same compound, the GI50 [52] was > 100 µM (inactive), the GI50 [53] was 78.7 µM (inactive) and the GI50 [54] was 49.5 µM (inactive). The GI50 [55] was > 100 µM (inactive) and the GI50 [56] was 93.1 µM (inactive).
